In brackets after ≈: the same amount, converted by molar mass. Structures can show the parent of a compound that is named as a salt.
How the values were obtained:
[1] = acute toxicity, LD50 (mouse, oral); details: in vivo
From the text: The acute toxicity values [LD50 (mouse, oral)] for the following compounds of this invention were over 5 g/kg: […]

[2] = system: Escherichia coli NIHJ; experiment: MIC, standard agar dilution method, Escherichia coli NIHJ; format: cell-based; details: Escherichia coli NIHJ; Mueller Hinton agar, 18 hours, 37° C.; read-out: MIC
Description: (§1) Minimal inhibitory concentration (MIC) was determined by the standard agar dilution method of the Japan Society of Chemotherapy.
(§2) Compounds were dissolved in appropriate solvents (sterilized water for sodium salts and acetone-water [1:1] for free acids) and serial two-fold dilutions were made. Sodium salt of Cefazolin was chosen as the control compound.
(§3) One-ml aliquots of each dilution were mixed with 9 ml of Mueller Hinton gar in petri-dishes to make agar plates containing the compound at serially diluted concentrations. After agar hardened, plates were put in an incubator at 37° C. for 1.5-2 hours with the lids slightly open to evaporate acetone off the plates.
(§4) Test organisms were grown for 18 hours at 37° C. in Trypticase Soy broth and diluted in saline to approximately 10^6 colony forming units per ml. A loopful of each cell suspension was applied on the agar plate mentioned above and the plates were incubated for 18 hours at 37° C. before MIC was determined.
(§5) The results are shown in Table 2, wherein the compound of Example 5 was selected and used in a form of free carboxylic acid as set forth in the Example 5, Item (a).

[3] = system: Proteus morganii EP-14; experiment: MIC, standard agar dilution method, Proteus morganii EP-14; format: cell-based; details: Morganella morganii, EP14, Mueller Hinton agar, 18 hours, 37° C.
Description: as §1, §2, §3, §4, §5

[4] = system: Staphylococcus aureus 209-P; experiment: MIC, standard agar dilution method, Staphylococcus aureus 209-P; format: cell-based; details: Mueller Hinton agar, 18 hours, 37° C.
Description: as §1, §2, §3, §4, §5

[5] = system: Klebsielle pneumoniae EK-6; experiment: MIC, standard agar dilution method, Klebsielle pneumoniae EK-6; format: cell-based; details: Klebsielle pneumoniae EK-6; Mueller Hinton agar, 18 hours, 37° C.; read-out: MIC
Description: as §1, §2, §3, §4, §5

[6] = system: Pseudomonas aeruginosa EP-172; experiment: MIC, standard agar dilution method, Pseudomonas aeruginosa EP-172; format: cell-based; details: EP172, Mueller Hinton agar, 18 hours, 37° C.
Description: as §1, §2, §3, §4, §5

[7] = system: Proteus bulgaris E-18; experiment: MIC, standard agar dilution method, Proteus bulgaris E-18; format: cell-based; details: Mueller Hinton agar, 18 hours, 37° C.
Description: as §1, §2, §3, §4, §5

[8] = system: Serratia marcescens ES-75; experiment: MIC, standard agar dilution method, Serratia marcescens ES-75; format: cell-based; details: ES75, Mueller Hinton agar, 18 hours, 37° C.
Description: as §1, §2, §3, §4, §5

Row | SMILES | LD50 [1] | MIC [2] | MIC [3] | MIC [4] | MIC [5] | MIC [6] | MIC [7] | MIC [8]
1 | CO[C@@]1(NC(=O)[C@H](NC(=O)c2coc3cc(O)c(O)cc3c2=O)c2ccc(O)cc2)C(=O)N2C(C(=O)O)=C(CSc3nnc(C)s3)CS[C@@H]21 [7β-[D-2-(6,7-Dihydroxychromone-3-carboxamido)-2-(4-hydroxyphenyl)acetamido]-7α-methoxy-3-[5-methyl-2-(1,3,4-thiadiazolyl)]thiomethyl-3-cephem-4-carboxylic acid] | > 5000 mg/kg | – | – | – | – | – | – | –
2 | CO[C@@]1(NC(=O)[C@H](NC(=O)c2coc3cc(O)c(O)cc3c2=O)c2ccc(O)cc2)C(=O)N2C(C(=O)O)=C(CSc3nnnn3C)CS[C@@H]21 [Example 3, 7β-[D-2-(6,7-Dihydroxychromone-3-carboxamido)-2-(4-hydroxyphenyl)acetamido]-7α-methoxy-3-(1-methyl-5-tetrazolyl)thiomethyl-3-cephem-4-carboxylic acid] | > 5000 mg/kg | 0.4 µg/mL (≈ 0.562 µM) | 3.13 µg/mL (≈ 4.4 µM) | 3.13 µg/mL (≈ 4.4 µM) | ≤ 0.1 µg/mL | 0.8 µg/mL (≈ 1.12 µM) | 0.8 µg/mL (≈ 1.12 µM) | ≤ 0.1 µg/mL
3 | CO[C@@]1(NC(=O)[C@H](NC(=O)c2coc3cc(O)c(O)cc3c2=O)c2ccc(O)cc2)C(=O)N2C(C(=O)O)=C(CSc3nnnn3CC(=O)O)CS[C@@H]21 [Example 16, 7β-[D-2-(6,7-Dihydroxychromone-3-carboxamido)-2-(4-hydroxyphenyl)acetamido]-7α-methoxy-3-1-carboxymethyl-5-tetrazolyl)thiomethyl-3-cephem-4-carboxylic acid disodium salt] | > 5000 mg/kg | – | – | – | – | – | – | –
4 | CCOC(=O)Oc1cc2occ(C(=O)N[C@@H](C(=O)N[C@]3(OC)C(=O)N4C(C(=O)O)=C(CSc5nnnn5CC(=O)OC)CS[C@@H]43)c3ccc(O)cc3)c(=O)c2cc1OC(=O)OCC [Example 20, 7β-[D-2-(6,7-Bis(ethoxycarbonyloxy)chromone-3-carboxamido)-2-(4-hydroxyphenyl)acetamido]-7α-methoxy-3-(1-methoxycarbonylmethyl-5-tetrazolyl)thiomethyl-3-cephem-4-carboxylic acid] | > 5000 mg/kg | 3.13 µg/mL (≈ 3.43 µM) | 6.25 µg/mL (≈ 6.84 µM) | 6.25 µg/mL (≈ 6.84 µM) | ≤ 0.1 µg/mL | 0.4 µg/mL (≈ 0.438 µM) | 0.8 µg/mL (≈ 0.875 µM) | 0.2 µg/mL (≈ 0.219 µM)
5 | CO[C@@]1(NC(=O)[C@H](NC(=O)c2coc3cc(OC(=O)OCC(Cl)(Cl)Cl)c(OC(=O)OCC(Cl)(Cl)Cl)cc3c2=O)c2ccc(O)cc2)C(=O)N2C(C(=O)O)=C(CSc3nnnn3C)CS[C@@H]21 [Example 23, 7β-[D-2-(6,7-Bis(2,2,2-trichloroethoxycarbonyloxy)chromone-3-carboxamido)-2-(4-hydroxyphenyl)-acetamido]-7α-methoxy-3-(1-methyl-5-tetrazolyl)thiomethyl-3-cephem-4-carboxylic acid] | > 5000 mg/kg | 6.25 µg/mL (≈ 5.88 µM) | 6.25 µg/mL (≈ 5.88 µM) | 3.13 µg/mL (≈ 2.95 µM) | ≤ 0.1 µg/mL | 0.8 µg/mL (≈ 0.753 µM) | 0.8 µg/mL (≈ 0.753 µM) | 0.2 µg/mL (≈ 0.188 µM)
6 | CCOC(=O)Oc1cc2occ(C(=O)N[C@@H](C(=O)N[C@]3(OC)C(=O)N4C(C(=O)O)=C(CSc5nnnn5CC(=O)O)CS[C@@H]43)c3ccc(O)cc3)c(=O)c2cc1OC(=O)OCC [Example 27, 7β-[D-2-(6,7-Bis(ethoxycarbonyloxy)chromone-3-carboxamido)-2-(4-hydroxyphenyl)acetamido]-7α-methoxy-3-(1-carboxymethyl-5-tetrazolyl)thiomethyl-3-cephem-4-carboxylic acid] | – | 3.13 µg/mL (≈ 3.48 µM) | 6.25 µg/mL (≈ 6.95 µM) | 3.13 µg/mL (≈ 3.48 µM) | ≤ 0.1 µg/mL | 0.8 µg/mL (≈ 0.889 µM) | 0.8 µg/mL (≈ 0.889 µM) | 0.2 µg/mL (≈ 0.222 µM)
7 | CO[C@@]1(NC(=O)[C@H](NC(=O)c2coc3cc(O)c(O)cc3c2=O)c2ccc(O)cc2)C(=O)N2C(C(=O)O)=C(CSc3nnc(CC(=O)O)s3)CS[C@@H]21 [Example 28, 7β-[D-2-(6,7-Dihydroxychromone-3-carboxamido)-2-(4-hydroxyphenyl)acetamido]-7α-methoxy-3-[5-carboxymethyl-2-(1,3,4-thiadiazolyl)]thiomethyl-3-cephem-4-carboxylic acid] | – | 3.13 µg/mL (≈ 4.06 µM) | 12.5 µg/mL (≈ 16.2 µM) | 3.13 µg/mL (≈ 4.06 µM) | ≤ 0.1 µg/mL | 0.8 µg/mL (≈ 1.04 µM) | 1.56 µg/mL (≈ 2.02 µM) | 0.4 µg/mL (≈ 0.518 µM)
8 | CO[C@@]1(NC(=O)[C@H](NC(=O)c2coc3cc(O)c(O)cc3c2=O)c2ccc(O)cc2)C(=O)N2C(C(=O)O)=C(CSc3nnc(CC(=O)O)o3)CS[C@@H]21 [Example 29, 7β-[D-2-(6,7-Dihydroxychromone-3-carboxamido)-2-(4-hydroxyphenyl)acetamido]-7α-methoxy-3-[5-carboxymethyl-2-(1,3,4-oxadiazolyl)]thiomethyl-3-cephem-4-carboxylic acid] | – | 12.5 µg/mL (≈ 16.5 µM) | 25 µg/mL (≈ 33.1 µM) | 6.25 µg/mL (≈ 8.27 µM) | ≤ 0.1 µg/mL | 0.8 µg/mL (≈ 1.06 µM) | 3.13 µg/mL (≈ 4.14 µM) | 0.8 µg/mL (≈ 1.06 µM)
9 | CO[C@@]1(NC(=O)[C@H](NC(=O)c2coc3cc(O)c(O)cc3c2=O)c2ccc(O)cc2)C(=O)N2C(C(=O)O)=C(CSc3nnnn3CCN(C)C)CS[C@@H]21 [Example 31, 7β-[D-2-(6,7-Dihydroxychromone-3-carboxamido)-2-(4-hydroxyphenyl)acetamido]-7α-methoxy-3-[1-[2-(N,N-dimethylamino)ethyl]-5-tetrazolyl]thiomethyl-3-cephem-4-carboxylic acid] | – | 12.5 µg/mL (≈ 16.3 µM) | 25 µg/mL (≈ 32.5 µM) | 3.13 µg/mL (≈ 4.07 µM) | ≤ 0.1 µg/mL | 0.8 µg/mL (≈ 1.04 µM) | 3.13 µg/mL (≈ 4.07 µM) | 0.4 µg/mL (≈ 0.52 µM)
10 | CCn1nnnc1SCC1=C(C(=O)O)N2C(=O)[C@](NC(=O)[C@H](NC(=O)c3coc4cc(O)c(O)cc4c3=O)c3ccc(O)cc3)(OC)[C@H]2SC1 [Example 32, 7β-[D-2-(6,7-Dihydroxychromone-3-carboxamido)-2-(4-hydroxyphenyl)acetamido]-7α-methoxy-3-(1-ethyl-5-tetrazolyl)thiomethyl-3-cephem-4-carboxylic acid] | – | 3.13 µg/mL (≈ 4.31 µM) | 12.5 µg/mL (≈ 17.2 µM) | 1.56 µg/mL (≈ 2.15 µM) | ≤ 0.1 µg/mL | 0.4 µg/mL (≈ 0.551 µM) | 1.56 µg/mL (≈ 2.15 µM) | 0.2 µg/mL (≈ 0.276 µM)
11 | CO[C@@]1(NC(=O)[C@H](NC(=O)c2coc3cc(O)c(O)cc3c2=O)c2ccc(O)cc2)C(=O)N2C(C(=O)O)=C(CSc3nncs3)CS[C@@H]21 [Example 33, 7β-[D-2-(6,7-Dihydroxychromone-3-carboxamido)-2-(4-hydroxyphenyl)acetamido]-7α-methoxy-3-[2-(1,3,4-thiadiazolyl)]thiomethyl-3-cephem-4-carboxylic acid] | – | 6.25 µg/mL (≈ 8.76 µM) | 25 µg/mL (≈ 35 µM) | 1.56 µg/mL (≈ 2.19 µM) | ≤ 0.1 µg/mL | 0.4 µg/mL (≈ 0.56 µM) | 1.56 µg/mL (≈ 2.19 µM) | 0.2 µg/mL (≈ 0.28 µM)

— US4415567A, “7α-Methoxycephalosporin derivatives, and antibacterial drugs containing the same” (Eisai Co., Ltd., priority 1980, dated 1983)
